# Experiments:
# [1] = Thiol reactivity: substitution reaction of the conjugation agent with MESNA, followed by HPLC; settings: for krel (MESNA): Table 2, water soluble conjugation agents, determined as for Table 1
# Protocol: (§1) The measures of thiol reactivities, thiol chemoselectivities, and aqueous stabilities were determined by the rate constants for the corresponding processes, i.e., relative rate constants for reaction with thiol-containing groups (thiol reactivity), the ratio of thiol to amine rate constants (chemoselectivity for thiol-containing groups), and the rate constant for decomposition of the non-bonded conjugation agent in an aqueous environment (aqueous stability). Equations used in the interpretation of kinetic experiments may be found in J. H. Espenson, Chemical Kinetics and Reaction Mechanisms; McGraw-Hill: New York, 1981.
# For the reactivity measurements, […] (MESNA) was used as the thiol-containing target, and lysine (Lys) was used as the amine target. The relevant reaction sequences are shown below, where LG is a leaving group, such as a halide, or alternatively a leaving group of the invention (Sx—Rs), such as an N-ethylmercaptotetrazolyl (EMT) group. All reactions were carried out at standard temperature and pressure. [drawing 20]
# (§2) The general structure of the conjugation agents used in Example 1 is shown below in formula V, and details of the structure for each conjugation agent are provided in Table 1. […] The selectivity is the ratio of krel(MESNA)/krel(Lys). The lifetime (τ) of a conjugation agent was measured as the time required for loss of about 66% of the starting amount in the solution of 80% phosphate buffer (pH 7)/20% acetonitrile. […] The progress of the reactions was followed by high performance liquid chromatography (HPLC) for up to 1 week. For lifetimes longer than about one week, the values were estimated based on the observed extent of decomposition, where possible. Conjugates labeled “I” are inventive; those labeled “C” are comparative. [drawing 21]
# (§3) The hydrolytic stability data was determined as the lifetime (r) as defined above, but in neutral (pH 7) aqueous phosphate buffer. Formulas for comparative conjugation agents C4-C10, and inventive conjugation agents I2-I6, are shown below. [drawing 22] [drawing 23]
# [2] = Aqueous stability: lifetime of the non-bonded conjugation agent (hydrolysis), followed by HPLC; format: physicochemical; settings: Table 2, neutral (pH 7) aqueous phosphate buffer, time for loss of about 66%
# Protocol: as §1, §2
# Selectivity values were generated using the lowest detection limit of the equipment as the value of krel(Lys).
# as §3
# [3] = Transamination of I7 with a lysine amide; settings: ambient temperature, pH 5.65
# Excerpt: Inventive conjugation agent I7 is an example of a conjugation agent designed to sequentially link a substrate containing amine groups, such as a support coated with gelatin, to a target containing thiol groups. [drawing 24] I7 was formed by conversion of the carboxylic acid functionality in I5 into a sulfosuccinate ester via standard procedures shown below in Example 3. This provided a functional group that was reactive towards amine groups. Near quantitative reaction of I7 with a corresponding lysine amide was conducted under transamination conditions (ambient temperature, pH 5.65, bimolecular rate constant for transamination, kbi=3.3 M^−1min^−1). This reaction was carried out under mildly acidic conditions to minimize the known competing hydrolysis of the sulfosuccinate ester. The resultant conjugate was called I8.
Structure (SMILES),krel (MESNA) [1],other results
CCn1nnnc1Sc1cc[n+](Cc2ccccc2)cc1 [I6],1.9,Lifetime ([2]; nd = hydrolysis not detected): 24 days
CCn1nnnc1Sc1c(C(=O)NCCC(=O)O)cc([N+](=O)[O-])cc1[N+](=O)[O-] [I4],0.4,Reactivity towards thiol-containing groups relative to C6 ([1]; Table 2 data): 100 times
"CCN1C(=O)C=CC1=O [C10, N-ethylmaleimide, reference compound]",24.3,Lifetime [2]: 1 days
"C=CS(=O)(=O)CS(=O)(=O)C=C [C9, bis(vinylsulfonyl)methane, reference compound]",0.7,Lifetime [2]: 0.75 days
CCn1nnnc1Sc1c([N+](=O)[O-])cc(C(=O)NCCC(=O)O)cc1[N+](=O)[O-] [I5],1.0,"krel(thiol, I5)/krel(thiol, 12) ([1]; ratio of Table 2 krel values): about 125"
CCn1nnnc1Sc1c([N+](=O)[O-])cc(C(=O)NCCC(=O)ON2C(=O)CC(S(=O)(=O)[O-])C2=O)cc1[N+](=O)[O-].[Na+] (stereo not drawn) [I7],,"bimolecular rate constant for transamination, kbi [3]: 0.055 M⁻¹ s⁻¹"
CCn1nnnc1Sc1cc(C(=O)NCCC(=O)O)c([N+](=O)[O-])cc1[N+](=O)[O-] [I3],0.1,

# Reference: US20060052421A1, “Conjugation agent” (Eastman Kodak Company, priority 2004, published 2006)
